Source: patent US6555538B2, “5-arylsulfonyl-imidazo[1′,2′:1,6]pyrido[2,3-b]pyrazine-6-amines and related compounds” (Pfizer Inc, priority 1999, dated 2003)

Work on Cc1ccc(S(=O)(=O)c2c(N)c3nccn3c3nccnc23)cc1 [Example 1, 5-[(4-Methylphenyl)sulfonyl]-imidazo[1′,2′:1,6]pyrido[2,3-b]pyrazin-6-amine] yielded a melting point of 294 to 295 °C.
Work on Cc1ccc(S(=O)(=O)c2c(N)c3nncn3c3nccnc23)cc1 [Example 2, 5-[(4-methylphenyl)sulfonyl]-[1,2,4]triazolo[4′,3′:1,6]pyrido[2,3-b]pyrazin-6-amine] yielded a melting point greater than 300 °C.
CCc1ccc(S(=O)(=O)c2c(N)c3nccn3c3nccnc23)cc1 [Example 3, 5-[(4-ethylphenyl)sulfonyl]-imidazo[1′,2′:1,6]pyrido[2,3-b]pyrazin-6-amine] gave a melting point of 267.5 to 268.5 °C.
In the case of CC(C)c1ccc(S(=O)(=O)c2c(N)c3nccn3c3nccnc23)cc1 [Example 4, 5-[(4-isopropylphenyl)sulfonyl]-imidazo[1′,2′:1,6]pyrido[2,3-b]pyrazin-6-amine], the melting point is reported as 241 to 244 °C.
Work on CCCc1ccc(S(=O)(=O)c2c(N)c3nccn3c3nccnc23)cc1 [Example 5, 5-[(4-propylphenyl)sulfonyl]-imidazo[1′,2′:1,6]pyrido[2,3-b]pyrazin-6-amine] yielded a melting point of 231 to 232 °C.
Work on COc1ccc(S(=O)(=O)c2c(N)c3nccn3c3nccnc23)cc1 [Example 6, 5-[(4-methoxyphenyl)sulfonyl]-imidazo[1′,2′:1,6]pyrido[2,3-b]pyrazin-6-amine] yielded a melting point of 269 to 270 °C.
For Nc1c(S(=O)(=O)c2ccc(O)cc2)c2nccnc2n2ccnc12 [Example 8, 5-[(4-Hydroxyphenyl)sulfonyl]-imidazo[1′,2′:1,6]pyrido[2,3-b]pyrazin-6-amine], the melting point was greater than 300 °C.
